{"source": "patent US20060236430A1", "about": "“Methods and compositions for producing male sterile plants” (priority 2003, published 2006)", "molecules": {"B1": {"name": "hydroxyjasmonic acid sulfotransferase encoded by the AtST2a gene (Arabidopsis thaliana) (protein)", "chain": "MATSSMKSIPMAIPSFSMCHKLELLKEGKTRDVPKAEEDEGLSCEFQEMLDSLPKERGWRTRYLYLFQGFWCQAKEIQAIMSFQKHFQSLENDVVLATIPKSGTTWLKALTFTILNRHRFDPVASSTNHPLFTSNPHDLVPFFEYKLYANGDVPDLSGLASPRTFATHLPFGSLKETIEKPGVKVVYLCRNPFDTFISSWHYTNNIKSESVSPVLLDQAFDLYCRGVIGFGPFWEHMLGYWRESLKRPEKVFFLRYEDLKDDIETNLKRLATFLELPFTEEEERKGVVKAIAELCSFENLKKLEVNKSNKSIKNFENRFLFRKGEVSDWVNYLSPSQVERLSALVDDKLGGSGLTFRLS"}}, "key": {"[1]": {"molecular_target": "T1, hydroxyjasmonic acid sulfotransferase encoded by the AtST2a gene (Arabidopsis thaliana, UniProt Q8L5A7)", "T1 sequence (Q8L5A7 1-359)": "B1 chain", "experiment": "Substrate specificity and kinetics of the AtST2a hydroxyjasmonic acid sulfotransferase", "type": "biochemical", "settings": "structurally related compounds", "text": "(§1) SEQ ID NO 1 (FIG. 6; GenBank®: accession number NM_120783) corresponds to the gene AtST2a in Arabidopsis thaliana. SEQ ID NO 3 (FIG. 7) is an amino acid sequence deduced from SEQ ID NO 1. This amino acid sequence is of public domain and can be retrieved from GenBank®, accession number NM_120783. The AtST2a gene from Arabidopsis thaliana encodes a sulfotransferase that sulfonates 12-OHJA and 11-OHJA with high specificity."}, "[2]": {"test_system": "transgenic Nicotiana tabacum plants (line 7) expressing AtST2a", "experiment": "Normalization experiment: restoring normal anther development in male sterile transgenic tobacco expressing AtST2a", "type": "in vivo", "settings": "for restoration of the male sterile phenotype by exogenous application: transgenic tobacco overexpressing AtST2a, concentration not given", "protocol": "The apex of T2 plants of line 7 was soaked daily in a solution containing either: 0.05% Tween20 in water (control), 0.05% Tween20 in water containing 50 μM MeJA or 0.05% Tween20 in water containing 100 μM 12-OHJA. The treatments were started approximately 7 days before the appearance of the first flower buds and lasted a total of 14 days. A minimum of 5 plants for each treatment were analyzed in this study.\nIn order to restore the phenotype, the apex of transgenic plants were soaked daily for 2 minutes in a solution containing 100 μM 12-OHJA dissolved in aqueous 0.05% TWEEN20. The application was started approximately 7 days prior to the appearance of the first flower bud and was continued for 7 days after the first flower appeared."}, "[3]": {"test_system": "A. thaliana opr3 mutant deficient in JA biosynthesis", "experiment": "Restoring the male sterile phenotype of the opr3 mutant by exogenous application to the inflorescence", "type": "in vivo, Arabidopsis thaliana", "settings": "data not shown"}, "[4]": {"substrate": "CC(O)C=CCC1C(=O)CCC1CC(=O)O", "experiment": "Substrate specificity and kinetics of the AtST2a hydroxyjasmonic acid sulfotransferase", "type": "biochemical, Arabidopsis thaliana", "settings": "other: as substrate of the sulfotransferase; pH 7.5", "text": "as §1"}, "[5]": {"substrate": "O=C(O)CC1CCC(=O)C1CC=CCCO", "experiment": "Substrate specificity and kinetics of the AtST2a hydroxyjasmonic acid sulfotransferase", "type": "biochemical, Arabidopsis thaliana", "settings": "other: as substrate of the sulfotransferase; pH 7.5", "text": "as §1"}}, "note": "“Also recorded” adds a separate entry of the source."}
{"molecule": "CC/C=C/CC1C(O)CCC1CC(=O)O", "note": "(stereo not drawn) [cucurbic acid]", "values": [{"measurement": "acceptance as substrate by the enzyme", "setting": "[1]", "result": "did not accept"}]}
{"molecule": "CCCCC/C=C\\C/C=C\\C/C=C\\C/C=C\\CCCCO", "note": "[arachidonyl alcohol]", "values": [{"measurement": "acceptance as substrate by the enzyme", "setting": "[1]", "result": "did not accept"}]}
{"molecule": "CC/C=C\\C[C@H]1C(=O)CC[C@@H]1CC(=O)O", "note": "[JA, jasmonic acid]", "values": [{"measurement": "restoration of the male sterile phenotype by exogenous application", "setting": "[2]", "result": "could be restored"}]}
{"molecule": "O=C(O)CC1CCC(=O)C1CC=CCCO", "note": "(stereo not drawn) [12-OHJA, 3-Oxo-2-(5-hydroxy-2-pentenyl)-cyclopentane-1-acetic acid]", "values": [{"measurement": "restoration of normal anther development", "setting": "[2]; 100 μM in aqueous 0.05% TWEEN20, apex of line 7 soaked daily for 2 minutes, 14 days", "result": "restoration of the mutant phenotype; also recorded: restored normal anther development"}, {"measurement": "production of viable pollen", "setting": "[2]; apex of transgenic plants treated for 14 days (FIG. 5)", "result": "production of viable pollen"}, {"measurement": "restoration of the male sterile phenotype by exogenous application", "setting": "[2]", "result": "could be restored"}, {"measurement": "restoration of the male sterile phenotype", "setting": "[3]", "result": "restore the male sterile phenotype"}]}
{"molecule": "B1", "values": [{"measurement": "Km", "setting": "[4]", "result": 60, "unit": "µM"}, {"measurement": "Km", "setting": "[5]", "result": 11, "unit": "µM"}]}
